The values below come from ChEMBL document CHEMBL1137034, “Synthesis of 1H-pyridin-2-one derivatives as potent and selective farnesyltransferase inhibitors” (Bioorg Med Chem Lett, 2004).

Data set [1] is described as follows: Inhibition of [3H]FPP incorporation into biotin-linked K-ras decapeptide (CVIM) by bovine farnesyltransferase. More on the design: species or system Bos taurus.
For data set [2], the target named is T1, Geranylgeranyl transferase type I (Bos taurus, UniProt P29702+Q5EAD5). The experiment in a line: inhibitory concentration needed to reduce the bovine GGTase-catalyzed incorporation of […] into a biotin-linked K-ras (B) decapeptide. It counts as protein-complex assay.
In data set [3] the target is T1, Geranylgeranyl transferase type I. Kind of data set: Inhibition of [3H]FPP incorporation into biotin-linked K-ras decapeptide (CVLL) by bovine geranylgeranyltransferase. It counts as protein-complex assay.
Data set [4] can be described thus: Inhibition of [3H]-FPP incorporation into biotin-linked K-ras decapeptide (CVIM) by bovine farnesyltransferase. On the set-up: species or system Bos taurus.
For data set [5], the target named is Protein farnesyltransferase (Mus musculus, UniProt Q61239+Q8K2I1). Kind of data set: Reduced farnesylation of H-ras transformed NIH3T3 cells. It counts as functional, cell-based.
A short description of data set [6]: Plasma clearance was determined. It counts as ADME, organism-based, Canis lupus familiaris. The conditions noted are these: dog, in vivo.
Data set [7] in a line: Oral bioavailability in dog. It counts as ADME, organism-based, Canis lupus familiaris. The conditions noted are these: in vivo.
A short description of data set [8]: Half life in dog. It counts as ADME, Canis lupus familiaris. As to conditions: in vivo.

Usually IC50 stands for the concentration that gives 50% inhibition. Low values mean inhibition by little substance, high ones a need for much substance. For `Cn1cncc1C(OCc1c(-c2cccc(C(F)(F)F)c2)cc(C#N)n(C)c1=O)c1ccc(C#N)cc1` (configuration not stated), the concentration for half-maximal inhibition (IC50) in data set [1] worked out at 7.5 nM; in data set [2], 3600 nM.
As to `Cn1cncc1C(OCc1cn(Cc2ccc(C#N)cc2)c(=O)cc1-c1cccc(Cl)c1)c1ccc(C#N)cc1` (configuration not stated), the figures for the IC50 in data set [3] and in data set [4] were greater than 10000 nM and 5 nM, respectively.
Consider `Cn1cncc1C(OCc1cn(Cc2ccccc2C#N)c(=O)cc1-c1cccc(Cl)c1)c1ccc(C#N)cc1` (configuration not stated), for which the half-maximal inhibitory concentration (IC50) was found to be 2.3 nM in data set [1] and 7700 nM in data set [2].
For `Cn1cncc1C(OCc1cn(CC#N)c(=O)cc1-c1cccc(Cl)c1)c1ccc(C#N)cc1` (configuration not stated) the same measures were 19 nM and greater than 10000 nM.
As usually defined, the EC50 is the concentration needed to bring the measured effect to its halfway point. In turn, `Cn1cncc1C(OCc1ccc(C#N)cc1-c1cccc(Cl)c1)c1ccc(C#N)cc1` (configuration not stated) yielded a half-maximal effective concentration (EC50) in data set [5] of 5.2 nM. Further, the concentration for half-maximal inhibition (IC50) in data set [1] was 0.87 nM; in data set [2], 1.3 nM.
`Cn1cncc1C(OCc1c(-c2cccc(Cl)c2)cc(C#N)c(=O)n1C)c1ccc(C#N)cc1` (configuration not stated): the concentration giving a half-maximal response (EC50) in data set [5] came out at 0.5 nM. The 50% inhibitory concentration (IC50) worked out at 0.44 nM in data set [1] and 2.7 nM in data set [2].
With `Cn1cncc1C(OCc1cn(C)c(=O)cc1-c1cccc(Cl)c1)c1ccc(C#N)cc1` (configuration not stated), the half-maximal inhibitory concentration (IC50) was 12 nM in data set [1] and greater than 10000 nM in data set [2].
Usually bioavailability stands for dose-corrected exposure relative to a reference, in per cent. A higher bioavailability goes with good availability. One may read the half-life as how long it takes for the measured level to halve. `Cn1cncc1C(OCc1cn(Cc2cccc(C#N)c2)c(=O)cc1-c1cccc(Cl)c1)c1ccc(C#N)cc1` (configuration not stated) came in with an EC50 in data set [5] of 9 nM. The same compound gave a Plasma clearance in data set [6] of 8.83 mL/min/kg. This compound returned a bioavailability in data set [7] of 47%. In addition, the values for the IC50 in data set [1] and in data set [2] were 1.3 nM and 1900 nM, respectively. Further, the half-life in data set [8] is 1.4 h.
`Cn1cncc1C(OCc1cn(Cc2cccnc2Br)c(=O)cc1-c1cccc(Cl)c1)c1ccc(C#N)cc1` (configuration not stated): the concentration for half-maximal inhibition (IC50) in data set [1] is 3 nM; in data set [2] it was 6600 nM.
`Cn1cncc1C(OCc1c(-c2cc(Cl)cc(Cl)c2)cc(C#N)n(C)c1=O)c1ccc(C#N)cc1` (configuration not stated): the response in data set [5] was half-maximal at 15 nM (EC50). The values for the IC50 in data set [1] and in data set [2] were 1.1 nM and 9400 nM, respectively.
Compound `Cn1cncc1C(OCc1cn(Cc2cccc(Cl)c2)c(=O)cc1-c1cccc(Cl)c1)c1ccc(C#N)cc1` (configuration not stated) gave an EC50 in data set [5] of 10 nM. Also, the figures for the concentration for half-maximal inhibition (IC50) in data set [1] and in data set [2] were 2.1 nM and 1200 nM, respectively.
`Cn1cncc1C(OCc1c(-c2cccc(Cl)c2)cc(C#N)n(C)c1=O)c1ccc(C#N)cc1` (configuration not stated) showed an EC50 in data set [5] of 11.4 nM. Further, the IC50 is 1.2 nM in data set [1] and greater than 10000 nM in data set [2].
In the same order, the values of `Cn1cncc1C(OCc1cn(Cc2cccc(F)c2)c(=O)cc1-c1cccc(Cl)c1)c1ccc(C#N)cc1` (configuration not stated) are 15 nM, 2.1 nM and 2000 nM.
On to `Cn1cncc1C(OCc1c[nH]c(=O)cc1-c1cccc(Cl)c1)c1ccc(C#N)cc1` (configuration not stated), for which the 50% inhibitory concentration (IC50) in data set [2] is 6200 nM. This lies in the single-digit micromolar range.
